In assay [1] the target is 5-hydroxytryptamine receptor 4 (Homo sapiens) (UniProt Q13639). As to the kind of experiment: Displacement of [3H]GR113808 from human 5-HT4 receptor at 10 uM incubated for 90 mins under dark condition by microbeta scintillation counting method relative to control.
Another assay has as its target Translocator protein (Homo sapiens, UniProt P30536). As to the kind of experiment: Inhibition of TSPO (unknown origin).
The target in assay [2] is 5-hydroxytryptamine receptor 7 (Homo sapiens) (UniProt P34969). Briefly: Displacement of [3H]LSD from human 5-HT7A receptor expressed in HEK cell membranes at 10 uM incubated for 90 mins under dark condition by microbeta scintillation counting method relative to control. The settings on record: HEK293. For orientation: Displacement assays read how much labelled ligand stays bound in the presence of the test substance.

The target of a further assay is Adenosine receptor A2a (Homo sapiens, UniProt P29274). Briefly: Displacement of [3 H]2-[p-(2-carboxyethyl)phenyl-ethylamino]-5'-N-ethylcarboxamidoadenosine from recombinant human adenosine receptor A2A expressed in HEK293 cell membranes at 10 uM after 60 mins by liquid scintillation counting method relative to control.
The target in assay [3] is 5-hydroxytryptamine receptor 1B (Homo sapiens) (UniProt P28222). Briefly: Displacement of [3H]5-CT from human 5-HT1BR expressed in HEK cell membranes at 10 uM incubated for 90 mins under dark condition by microbeta scintillation counting method relative to control. Conditions: HEK293.
Assay [4] addresses T1, 5-hydroxytryptamine receptor 2B (Homo sapiens, UniProt P41595). Briefly: biochemical. The format is cell-based, HEK293.
Assay [5] addresses T2, 5-hydroxytryptamine receptor 2C (Homo sapiens, UniProt P28335).
T2 sequence (P28335 whole entry): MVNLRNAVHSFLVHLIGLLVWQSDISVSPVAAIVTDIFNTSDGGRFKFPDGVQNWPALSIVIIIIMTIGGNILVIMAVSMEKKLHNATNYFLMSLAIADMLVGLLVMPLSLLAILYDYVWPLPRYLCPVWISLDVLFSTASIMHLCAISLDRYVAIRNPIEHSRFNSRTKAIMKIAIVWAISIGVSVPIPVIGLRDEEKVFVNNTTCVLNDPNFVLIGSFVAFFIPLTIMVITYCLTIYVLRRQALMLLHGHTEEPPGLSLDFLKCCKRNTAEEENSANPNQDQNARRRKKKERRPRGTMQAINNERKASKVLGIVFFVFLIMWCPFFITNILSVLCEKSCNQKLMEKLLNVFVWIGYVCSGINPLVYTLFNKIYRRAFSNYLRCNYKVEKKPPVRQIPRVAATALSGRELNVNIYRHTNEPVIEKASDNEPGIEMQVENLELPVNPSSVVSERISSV
As to the kind of experiment: Displacement of [3H]mesulergine from human 5-HT2CR expressed in Flp-In HEK cell membranes incubated for 90 mins under dark condition by microbeta scintillation counting method. The arrangement: species or system HEK293.

Assay [6] addresses T3, 5-hydroxytryptamine receptor 1A (Homo sapiens) (UniProt P08908).
T3 sequence (whole entry): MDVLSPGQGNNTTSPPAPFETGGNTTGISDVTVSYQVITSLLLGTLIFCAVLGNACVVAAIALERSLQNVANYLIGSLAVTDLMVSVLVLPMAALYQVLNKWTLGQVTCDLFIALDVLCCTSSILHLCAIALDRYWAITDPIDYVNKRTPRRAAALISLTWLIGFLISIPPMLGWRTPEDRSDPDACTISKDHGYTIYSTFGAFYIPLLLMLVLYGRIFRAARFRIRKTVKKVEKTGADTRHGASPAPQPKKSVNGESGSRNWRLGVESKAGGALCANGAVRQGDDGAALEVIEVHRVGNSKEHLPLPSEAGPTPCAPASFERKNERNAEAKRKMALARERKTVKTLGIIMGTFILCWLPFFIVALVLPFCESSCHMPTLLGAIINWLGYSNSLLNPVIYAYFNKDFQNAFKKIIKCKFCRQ
Briefly: Displacement of [3H]WAY100635 from human 5-HT1AR expressed in CHO cell membranes at 10 uM incubated for 90 mins under dark condition by microbeta scintillation counting method relative to control.

The target of assay [7] is T4, 5-hydroxytryptamine receptor 2A (Homo sapiens, UniProt P28223). As to the kind of experiment: Displacement of [3H]ketanserin from human 5-HT2A receptor expressed in HEK-T cell membranes incubated for 90 mins under dark condition by microbeta scintillation counting method.
In assay [8] the target is 5-hydroxytryptamine receptor 1D (Homo sapiens) (UniProt P28221). As to the kind of experiment: Displacement of [3H]5-CT from human 5-HT1D receptor expressed in HEK-T cell membranes at 10 uM incubated for 90 mins under dark condition by microbeta scintillation counting method relative to control.
The target in assay [9] is T5, 5-hydroxytryptamine receptor 3A (Homo sapiens) (UniProt P46098).
T5 sequence (whole entry): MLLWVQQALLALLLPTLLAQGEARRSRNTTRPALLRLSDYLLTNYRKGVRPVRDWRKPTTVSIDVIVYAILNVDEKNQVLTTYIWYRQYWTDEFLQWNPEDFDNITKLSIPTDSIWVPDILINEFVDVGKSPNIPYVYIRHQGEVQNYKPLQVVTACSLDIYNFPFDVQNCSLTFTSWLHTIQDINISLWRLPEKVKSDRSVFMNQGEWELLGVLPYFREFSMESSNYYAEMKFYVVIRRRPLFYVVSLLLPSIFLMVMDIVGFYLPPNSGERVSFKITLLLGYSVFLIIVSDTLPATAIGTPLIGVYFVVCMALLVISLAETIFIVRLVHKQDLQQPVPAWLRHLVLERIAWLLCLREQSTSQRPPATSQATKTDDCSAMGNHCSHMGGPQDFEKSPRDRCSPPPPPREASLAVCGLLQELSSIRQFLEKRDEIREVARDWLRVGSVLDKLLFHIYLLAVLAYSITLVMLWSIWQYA
Briefly: Displacement of [3H]GR65630 from human 5-HT3 receptor expressed in HEK-T cell membranes at 10 uM incubated for 90 mins under dark condition by microbeta scintillation counting method relative to control.

Assay [10] concerns the target 5-hydroxytryptamine receptor 1E (Homo sapiens) (UniProt P28566). Briefly: Displacement of [3H]5-HT from human 5-HT1E receptor expressed in HEK cell membranes at 10 uM incubated for 90 mins under dark condition by microbeta scintillation counting method relative to control. Conditions: HEK293.
Assay [11] has as its target 5-hydroxytryptamine receptor 5A (Homo sapiens) (UniProt P47898). As to the kind of experiment: Displacement of [3H]LSD from human 5-HT5A receptor expressed in Flp-In-CHO cell membranes incubated for 90 mins under dark condition by microbeta scintillation counting method relative to control. On the set-up: concentration or dose not given beside the values.
Assay [12] addresses 5-hydroxytryptamine receptor 6 (Homo sapiens) (UniProt P50406). Briefly: Displacement of [3H]LSD from human 5-HT6 receptor expressed in HEK cell membranes at 10 uM incubated for 90 mins under dark condition by microbeta scintillation counting method relative to control. Conditions: HEK293.
Another assay deals with T6, Adenosine receptor A1 (Homo sapiens, UniProt P30542).
T6 sequence (P30542 whole entry): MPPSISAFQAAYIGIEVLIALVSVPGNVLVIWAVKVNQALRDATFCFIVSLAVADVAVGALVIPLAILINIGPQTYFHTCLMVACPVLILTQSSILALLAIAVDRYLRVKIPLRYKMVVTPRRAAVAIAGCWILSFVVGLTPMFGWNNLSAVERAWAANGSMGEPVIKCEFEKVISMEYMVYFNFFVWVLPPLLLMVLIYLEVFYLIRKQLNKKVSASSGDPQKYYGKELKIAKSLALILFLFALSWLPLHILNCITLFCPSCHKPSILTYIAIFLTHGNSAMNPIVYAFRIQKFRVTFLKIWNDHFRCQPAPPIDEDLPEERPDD
As to the kind of experiment: Displacement of [3H]N6-phenylisopropyladenosine from recombinant human A1AR expressed in CHO cell membranes after 60 mins by liquid scintillation counting method.

In another assay the target is T7, Adenosine receptor A3 (Homo sapiens, UniProt P0DMS8).
T7 sequence (P0DMS8 whole entry): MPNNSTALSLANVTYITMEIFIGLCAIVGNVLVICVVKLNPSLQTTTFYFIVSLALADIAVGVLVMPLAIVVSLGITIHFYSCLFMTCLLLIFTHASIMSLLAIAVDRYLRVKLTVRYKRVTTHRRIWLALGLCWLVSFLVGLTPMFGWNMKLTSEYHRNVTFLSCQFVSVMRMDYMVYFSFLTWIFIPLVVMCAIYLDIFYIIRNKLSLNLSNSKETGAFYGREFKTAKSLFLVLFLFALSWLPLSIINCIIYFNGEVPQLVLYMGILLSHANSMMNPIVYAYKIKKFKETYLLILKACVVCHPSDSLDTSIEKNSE
As to the kind of experiment: Displacement of [125l]N 6-(4-amino-3-iodobenzyl)adenosine-5'-N-methyluronamide from recombinant human A3AR expressed in CHO cell membranes after 60 mins by gamma counting method.

The target in assay [13] is T1, 5-hydroxytryptamine receptor 2B. The settings on record: HEK293, at 10 µM.
For assay [14], the target named is T8, 5-hydroxytryptamine receptor 2C (Homo sapiens) (UniProt P28335).
T8 sequence (whole entry): T2 sequence (P28335 whole entry)
Briefly: Displacement of [3H]mesulergine from human 5-HT2CR expressed in Flp-In HEK cell membranes at 10 uM incubated for 90 mins under dark condition by microbeta scintillation counting method relative to control. The settings on record: HEK293.

Assay [15] concerns the target T4, 5-hydroxytryptamine receptor 2A. As to the kind of experiment: Displacement of [3H]ketanserin from human 5-HT2A receptor expressed in HEK-T cell membranes at 10 uM incubated for 90 mins under dark condition by microbeta scintillation counting method relative to control.
The target of assay [16] is 5-hydroxytryptamine receptor 3A (Homo sapiens, UniProt P46098). As to the kind of experiment: Displacement of [3H]GR65630 from human 5-HT3 receptor expressed in HEK-T cell membranes incubated for 90 mins under dark condition by microbeta scintillation counting method.
Assay [17] concerns the target Adenosine receptor A3 (Homo sapiens) (UniProt P0DMS8). As to the kind of experiment: Displacement of [125l]N 6-(4-amino-3-iodobenzyl)adenosine-5'-N-methyluronamide from recombinant human A3AR expressed in CHO cell membranes at 10 uM after 60 mins by gamma counting method relative to control.
Assay [18] has as its target T9, Adenosine receptor A1 (Homo sapiens) (UniProt P30542).
T9 sequence (whole entry): T6 sequence (P30542 whole entry)
As to the kind of experiment: Displacement of [3H]N6-phenylisopropyladenosine from recombinant human A1AR expressed in CHO cell membranes at 10 uM after 60 mins by liquid scintillation counting method relative to control.

A short description of assay [19]: Displacement of [3H]DTG from sigma2 receptor in rat PC12 cells after 90 mins by microbeta scintillation counting method. The format is cell-based. The settings on record: pc-12.

Usually inhibition stands for how much of the control response was suppressed. A word on the pKi: it is the Ki on a negative log10 scale, so that one unit is a factor of ten.

Each structure is given as a SMILES string. pKi: −log10 of the molar value. Where only a bound is given, the exact number is not on record here.

Sequence of 5-hydroxytryptamine receptor 1D (Homo sapiens) (P28221 whole entry): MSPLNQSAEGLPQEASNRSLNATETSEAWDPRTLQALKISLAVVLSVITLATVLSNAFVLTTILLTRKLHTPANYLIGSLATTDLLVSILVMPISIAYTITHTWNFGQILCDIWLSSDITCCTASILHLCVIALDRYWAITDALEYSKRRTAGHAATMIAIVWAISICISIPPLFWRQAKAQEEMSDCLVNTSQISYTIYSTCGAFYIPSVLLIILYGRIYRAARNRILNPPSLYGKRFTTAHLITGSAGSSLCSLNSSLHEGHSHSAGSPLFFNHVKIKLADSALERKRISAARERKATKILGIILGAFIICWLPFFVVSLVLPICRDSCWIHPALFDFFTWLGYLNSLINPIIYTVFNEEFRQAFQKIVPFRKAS
Sequence of 5-hydroxytryptamine receptor 7 (Homo sapiens) (P34969 whole entry): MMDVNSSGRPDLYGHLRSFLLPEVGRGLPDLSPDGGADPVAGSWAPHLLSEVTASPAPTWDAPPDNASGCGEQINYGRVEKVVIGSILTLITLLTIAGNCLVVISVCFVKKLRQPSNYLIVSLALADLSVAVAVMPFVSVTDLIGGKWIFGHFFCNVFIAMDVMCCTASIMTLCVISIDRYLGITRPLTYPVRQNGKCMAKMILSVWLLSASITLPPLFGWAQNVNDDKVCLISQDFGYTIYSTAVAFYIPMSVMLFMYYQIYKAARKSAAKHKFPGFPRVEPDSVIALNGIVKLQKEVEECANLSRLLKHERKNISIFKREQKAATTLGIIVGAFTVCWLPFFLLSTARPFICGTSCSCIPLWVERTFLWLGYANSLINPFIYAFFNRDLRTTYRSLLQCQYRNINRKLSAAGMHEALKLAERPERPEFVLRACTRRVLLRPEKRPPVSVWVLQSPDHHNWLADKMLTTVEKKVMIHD
Sequence of 5-hydroxytryptamine receptor 1E (Homo sapiens) (P28566 whole entry): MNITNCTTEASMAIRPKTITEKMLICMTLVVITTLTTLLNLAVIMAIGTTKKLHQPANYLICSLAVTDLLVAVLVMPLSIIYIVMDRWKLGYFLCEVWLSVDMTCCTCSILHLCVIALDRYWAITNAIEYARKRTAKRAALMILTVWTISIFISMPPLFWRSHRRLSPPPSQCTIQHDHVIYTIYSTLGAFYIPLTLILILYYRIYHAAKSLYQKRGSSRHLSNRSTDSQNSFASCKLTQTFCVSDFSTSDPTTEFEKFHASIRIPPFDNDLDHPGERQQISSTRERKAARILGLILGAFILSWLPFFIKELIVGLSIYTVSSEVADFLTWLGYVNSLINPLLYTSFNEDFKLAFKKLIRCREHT
Sequence of 5-hydroxytryptamine receptor 1B (Homo sapiens) (P28222 whole entry): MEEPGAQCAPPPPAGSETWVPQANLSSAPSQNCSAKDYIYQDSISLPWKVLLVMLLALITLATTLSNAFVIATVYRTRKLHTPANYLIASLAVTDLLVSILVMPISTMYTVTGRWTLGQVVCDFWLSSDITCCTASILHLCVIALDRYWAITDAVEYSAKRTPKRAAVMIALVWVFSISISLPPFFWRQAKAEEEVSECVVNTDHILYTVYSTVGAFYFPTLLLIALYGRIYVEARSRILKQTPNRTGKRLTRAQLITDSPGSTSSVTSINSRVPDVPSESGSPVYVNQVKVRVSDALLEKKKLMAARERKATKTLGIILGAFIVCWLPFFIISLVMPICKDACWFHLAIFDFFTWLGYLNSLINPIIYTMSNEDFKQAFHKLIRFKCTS
Sequence of 5-hydroxytryptamine receptor 4 (Homo sapiens) (Q13639 whole entry): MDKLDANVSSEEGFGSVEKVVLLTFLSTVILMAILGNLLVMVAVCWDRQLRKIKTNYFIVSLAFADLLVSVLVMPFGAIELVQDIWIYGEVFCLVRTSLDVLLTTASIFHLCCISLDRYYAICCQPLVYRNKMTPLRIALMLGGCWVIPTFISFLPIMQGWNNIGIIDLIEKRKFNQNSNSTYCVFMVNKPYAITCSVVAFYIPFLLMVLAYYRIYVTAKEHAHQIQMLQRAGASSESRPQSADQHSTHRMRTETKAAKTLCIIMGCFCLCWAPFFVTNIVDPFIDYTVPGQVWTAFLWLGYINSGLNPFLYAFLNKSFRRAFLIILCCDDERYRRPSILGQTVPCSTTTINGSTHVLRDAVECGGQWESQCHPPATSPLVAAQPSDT
Sequence of Adenosine receptor A2a (P29274 whole entry): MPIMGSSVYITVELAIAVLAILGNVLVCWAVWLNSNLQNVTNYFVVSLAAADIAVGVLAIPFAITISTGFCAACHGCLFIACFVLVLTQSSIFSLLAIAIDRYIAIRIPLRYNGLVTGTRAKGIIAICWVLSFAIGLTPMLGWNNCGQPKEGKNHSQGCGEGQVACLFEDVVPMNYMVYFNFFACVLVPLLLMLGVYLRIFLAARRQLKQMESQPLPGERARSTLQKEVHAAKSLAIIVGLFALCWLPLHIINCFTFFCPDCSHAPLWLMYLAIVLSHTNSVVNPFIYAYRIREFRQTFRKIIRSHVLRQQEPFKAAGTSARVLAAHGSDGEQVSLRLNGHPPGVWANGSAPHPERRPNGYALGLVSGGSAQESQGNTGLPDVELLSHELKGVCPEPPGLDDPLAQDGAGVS
Sequence of 5-hydroxytryptamine receptor 6 (Homo sapiens) (P50406 whole entry): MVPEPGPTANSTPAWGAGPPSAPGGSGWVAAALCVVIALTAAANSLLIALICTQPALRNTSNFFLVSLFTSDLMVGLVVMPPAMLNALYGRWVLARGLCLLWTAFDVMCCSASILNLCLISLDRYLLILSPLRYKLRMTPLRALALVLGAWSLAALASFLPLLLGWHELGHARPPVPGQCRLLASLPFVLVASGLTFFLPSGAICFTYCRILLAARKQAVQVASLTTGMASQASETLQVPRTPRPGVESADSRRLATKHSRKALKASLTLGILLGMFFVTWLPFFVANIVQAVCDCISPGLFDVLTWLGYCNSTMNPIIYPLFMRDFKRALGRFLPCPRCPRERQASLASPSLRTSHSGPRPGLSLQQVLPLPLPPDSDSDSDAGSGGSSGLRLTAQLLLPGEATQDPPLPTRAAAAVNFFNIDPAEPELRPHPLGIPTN
Sequence of 5-hydroxytryptamine receptor 5A (Homo sapiens) (P47898 whole entry): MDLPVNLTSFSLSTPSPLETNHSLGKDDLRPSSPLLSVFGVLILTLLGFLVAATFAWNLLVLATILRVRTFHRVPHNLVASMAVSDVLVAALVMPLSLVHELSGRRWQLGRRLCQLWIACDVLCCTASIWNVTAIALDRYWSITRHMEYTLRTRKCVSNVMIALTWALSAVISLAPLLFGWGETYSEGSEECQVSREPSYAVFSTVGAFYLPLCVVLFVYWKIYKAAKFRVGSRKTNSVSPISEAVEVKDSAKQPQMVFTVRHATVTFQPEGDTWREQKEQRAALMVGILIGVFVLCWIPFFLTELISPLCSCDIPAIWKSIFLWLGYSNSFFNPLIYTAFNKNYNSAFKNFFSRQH
T1 sequence (P41595 whole entry): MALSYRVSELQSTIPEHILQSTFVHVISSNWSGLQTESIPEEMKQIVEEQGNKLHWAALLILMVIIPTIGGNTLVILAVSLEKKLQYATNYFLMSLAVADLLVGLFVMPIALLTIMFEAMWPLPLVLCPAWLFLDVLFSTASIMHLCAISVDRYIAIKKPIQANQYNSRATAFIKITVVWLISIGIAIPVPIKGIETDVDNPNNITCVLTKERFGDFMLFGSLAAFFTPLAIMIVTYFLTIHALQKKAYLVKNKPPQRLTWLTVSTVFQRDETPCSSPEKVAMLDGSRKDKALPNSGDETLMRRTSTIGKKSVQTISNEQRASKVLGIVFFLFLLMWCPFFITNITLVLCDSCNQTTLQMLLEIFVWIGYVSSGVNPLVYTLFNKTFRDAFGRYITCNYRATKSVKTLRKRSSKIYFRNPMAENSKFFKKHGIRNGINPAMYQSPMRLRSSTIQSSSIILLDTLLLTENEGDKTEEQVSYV
T4 sequence (P28223 whole entry): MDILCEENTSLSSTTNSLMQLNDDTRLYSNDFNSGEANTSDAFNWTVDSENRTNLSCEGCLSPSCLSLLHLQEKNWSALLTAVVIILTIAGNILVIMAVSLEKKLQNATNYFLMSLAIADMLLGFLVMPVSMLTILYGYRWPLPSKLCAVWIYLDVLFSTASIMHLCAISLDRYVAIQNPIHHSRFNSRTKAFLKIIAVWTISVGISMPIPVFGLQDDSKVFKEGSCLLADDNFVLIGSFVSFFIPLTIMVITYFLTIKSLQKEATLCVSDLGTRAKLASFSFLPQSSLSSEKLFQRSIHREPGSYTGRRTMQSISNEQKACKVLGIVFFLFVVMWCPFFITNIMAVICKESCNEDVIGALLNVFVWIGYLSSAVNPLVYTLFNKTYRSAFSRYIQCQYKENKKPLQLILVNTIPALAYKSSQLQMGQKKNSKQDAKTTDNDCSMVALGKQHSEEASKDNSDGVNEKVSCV
Sequence of Translocator protein (P30536 whole entry): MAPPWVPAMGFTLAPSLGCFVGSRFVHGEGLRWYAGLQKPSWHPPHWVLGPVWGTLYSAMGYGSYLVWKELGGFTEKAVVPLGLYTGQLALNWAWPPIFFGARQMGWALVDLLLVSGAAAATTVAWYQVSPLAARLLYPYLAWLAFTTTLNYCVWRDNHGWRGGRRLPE

With `CCCOC(=O)[C@@]12C[C@@H]1[C@@H](n1cnc3c(NC(C4CC4)C4CC4)nc(Cl)nc31)[C@H](O)[C@@H]2O`, the inhibition in [1] is less than 50%; in [2] it was less than 50%; on Adenosine receptor A2a, 19%; in assay [3], less than 50%; in assay [6], less than 50%; in [8], less than 50%. For the same molecule, the inhibition in [9] is less than 50%; in assay [10] it was less than 50%; in assay [11] it was less than 50%; in assay [12] it was less than 50%; in assay [13], more than 50%; in assay [14], more than 50%. This molecule displayed an inhibition in assay [15] of less than 10%. For the same molecule, the negative logarithm of the Ki (pKi) is 5.66 at Translocator protein; 7.35 in assay [4]; 6.69 in [5]; less than 5.00 in [7]; 6.36 on Adenosine receptor A1; 6.30 on Adenosine receptor A3.

Regarding `O[C@@H]1[C@H](O)[C@@H]2C[C@@H]2[C@H]1n1cnc2c(NCc3cccc(Cl)c3)nc(Cl)nc21`, the inhibition in assay [1] was less than 50%; in assay [2] it was less than 50%; at Adenosine receptor A2a, more than 50%; in assay [3] it was less than 50%; in assay [6], less than 50%; in assay [8], less than 50%. The inhibition in assay [10] was less than 50%; in assay [11] it was less than 50%; in [12], less than 50%; in assay [13], more than 50%; in [14], more than 50%; in assay [15], less than 10%. For the same molecule, the pKi in [16] is 5.49; in assay [4] it was 5.62; in assay [5], 5.39; in assay [7], less than 5.00; on Adenosine receptor A1, 5.80.

As for `CCOC(=O)[C@@]12C[C@@H]1[C@@H](n1cnc3c(N(C)C)nc(Cl)nc31)[C@H](O)[C@@H]2O`, the inhibition in assay [17] was 30%; in [1], less than 50%; in assay [18], less than 10%; in assay [2], less than 50%; at Adenosine receptor A2a, 13%; in [3], less than 50%. Further, the inhibition in assay [6], in assay [8], in assay [9], in [10], in [11] and in [12] was less than 50% throughout. Moreover, the inhibition was more than 50% in [13], more than 50% in [14] and less than 10% in assay [15]. Also, the results for the pKi in [4], in [5] and in assay [7] were 6.17, 5.87 and less than 5.00, respectively.

Take `CNC(=O)[C@@]12C[C@@H]1[C@@H](n1cnc3c(N(C)C)nc(C#Cc4ccc(Cl)s4)nc31)[C@H](O)[C@@H]2O`: the negative-log Ki (pKi) in assay [19] was 5.14; in assay [5] it was 5.07; in assay [7] it was less than 5.00; on Adenosine receptor A3, 7.63. Besides, the inhibition in assay [1] was less than 50%; in assay [18], 25%; in [2] it was less than 50%; on Adenosine receptor A2a, 15%; in assay [3], less than 50%; in [6] it was less than 50%. The inhibition in assay [8] was less than 50%; in assay [9], less than 50%; in assay [10], less than 50%; in assay [11] it was less than 50%; in [12], less than 50%; in [13], less than 10%. Moreover, the figures for the inhibition in assay [14] and in assay [15] were more than 50% and 27%, respectively.

The record behind these values is ChEMBL document CHEMBL3862033 (J Med Chem, 2016).
